Assays:
Test in all cases: NCI-60 single-dose anticancer screen
Assay type in all cases: cell-based, human
[1] = test system: OVCAR-5 (Ovarian cancer); conditions: 10 µM single dose
Method: (§1) Six compounds were selected by the NCI, according to NCI’s DTP selection guidelines, for evaluation of their anticancer activity at a single-dose of 10 µM against 60 human tumours cell lines.
(§2) In vitro cytotoxicity was performed in NCI according to reported method.

[2] = test system: HS 578T (Breast cancer); conditions: 10 µM single dose
Method: as §1, §2

[3] = test system: MDA-MB-468 (Breast cancer); conditions: 10 µM single dose
Method: as §1, §2

[4] = test system: M14 (Melanoma); conditions: 10 µM single dose
Method: as §1, §2

[5] = test system: OVCAR-3 (Ovarian cancer); conditions: 10 µM single dose
Method: as §1, §2

[6] = test system: SR (Leukaemia); conditions: 10 µM single dose
Method: as §1, §2

[7] = test system: HT29 (Colon cancer); conditions: for cell growth promotion: 10 µM single dose; for inhibition at 10 µM: Homo sapiens, HT-29, 10 µM single dose, read-out: cell growth inhibition
Method: as §1, §2

[8] = test system: SF-539 (CNS cancer); conditions: 10 µM single dose
Method: as §1, §2

[9] = test system: SF-268 (CNS cancer); conditions: 10 µM single dose
Method: as §1, §2

[10] = test system: KM12 (Colon cancer); conditions: 10 µM single dose
Method: as §1, §2

[11] = test system: U251 (CNS cancer); conditions: 10 µM single dose
Method: as §1, §2

[12] = test system: NCI-H23 (Non-small cell lung cancer); conditions: 10 µM single dose
Method: as §1, §2

[13] = test system: UACC-257 (Melanoma); conditions: 10 µM single dose
Method: as §1, §2

[14] = test system: OVCAR-8 (Ovarian cancer); conditions: 10 µM single dose
Method: as §1, §2

[15] = test system: SN12C (Renal cancer); conditions: 10 µM single dose
Method: as §1, §2

[16] = test system: SF-295 (CNS cancer); conditions: 10 µM single dose
Method: as §1, §2

[17] = test system: UACC-62 (Melanoma); conditions: 10 µM single dose
Method: as §1, §2

[18] = test system: RPMI-8226 (Leukaemia); conditions: 10 µM single dose
Method: as §1, §2

[19] = test system: SK-MEL-5 (Melanoma); conditions: 10 µM single dose
Method: as §1, §2

[20] = test system: NCI-H522 (Non-small cell lung cancer); conditions: 10 µM single dose
Method: as §1, §2

[21] = test system: SK-MEL-2 (Melanoma); conditions: 10 µM single dose
Method: as §1, §2

[22] = test system: HCC-2998 (Colon cancer); conditions: 10 µM single dose
Method: as §1, §2

[23] = test system: MALME-3M (Melanoma); conditions: 10 µM single dose
Method: as §1, §2

[24] = test system: NCI/ADR-RES (Ovarian cancer); conditions: 10 µM single dose
Method: as §1, §2

[25] = test system: SNB-19 (CNS cancer); conditions: 10 µM single dose
Method: as §1, §2

[26] = test system: NCI-H322M (Non-small cell lung cancer); conditions: 10 µM single dose
Method: as §1, §2

[27] = test system: CAKI-1 (Renal cancer); conditions: 10 µM single dose
Method: as §1, §2

[28] = test system: COLO 205 (Colon cancer); conditions: 10 µM single dose
Method: as §1, §2

[29] = test system: IGROV1 (Ovarian cancer); conditions: 10 µM single dose
Method: as §1, §2

[30] = test system: HOP-92 (Non-small cell lung cancer); conditions: 10 µM single dose; for inhibition at 10 µM: Homo sapiens, read-out: cell growth inhibition
Method: as §1, §2

[31] = test system: K-562 (Leukaemia); conditions: for cell growth promotion: 10 µM single dose
Method: as §1, §2

[32] = test system: NCI-H460 (Non-small cell lung cancer); conditions: 10 µM single dose
Method: as §1, §2

[33] = test system: MDA-MB-435 (Melanoma); conditions: 10 µM single dose
Method: as §1, §2

[34] = test system: A498 (Renal cancer); conditions: 10 µM single dose
Method: as §1, §2

[35] = test system: SW-620 (Colon cancer); conditions: 10 µM single dose
Method: as §1, §2

[36] = test system: BT-549 (Breast cancer); conditions: 10 µM single dose
Method: as §1, §2

[37] = test system: UO-31 (Renal cancer); conditions: 10 µM single dose
Method: as §1, §2

[38] = test system: TK-10 (Renal cancer); conditions: 10 µM single dose
Method: as §1, §2

[39] = test system: A549/ATCC (Non-small cell lung cancer); conditions: 10 µM single dose
Method: as §1, §2

[40] = test system: EKVX (Non-small cell lung cancer); conditions: 10 µM single dose
Method: as §1, §2

[41] = test system: HL-60(TB) (Leukaemia); conditions: 10 µM single dose
Method: as §1, §2

[42] = test system: CCRF-CEM (Leukaemia); conditions: 10 µM single dose
Method: as §1, §2

[43] = test system: SNB-75 (CNS cancer); conditions: 10 µM single dose
Method: as §1, §2

[44] = test system: HCT-15 (Colon cancer); conditions: 10 µM single dose
Method: as §1, §2

[45] = test system: OVCAR-4 (Ovarian cancer); conditions: 10 µM single dose
Method: as §1, §2

[46] = test system: ACHN (Renal cancer); conditions: 10 µM single dose
Method: as §1, §2

[47] = test system: SK-MEL-28 (Melanoma); conditions: 10 µM single dose
Method: as §1, §2

[48] = Homo sapiens, read-out: cell growth inhibition

Fc1cnccc1C1CC(c2ccc(N3CCNCC3)cc2)=NN1 (stereo not drawn) [VIc, 1-(4-(5-(3-Fluoropyridin-4-yl)-4,5-dihydro-1H-pyrazol-3-yl)phenyl) piperazine]
cell growth promotion [1]: 111.45% | cell growth promotion [2]: 89.15% | cell growth promotion [3]: 114.26% | cell growth promotion [4]: 95.86% | cell growth promotion [5]: 98.79% | cell growth promotion [6]: 90.38% | cell growth promotion [7]: 60.16% | inhibition at 10 µM [7]: 39.8% | cell growth promotion [8]: 104.39% | cell growth promotion [9]: 107.32% | cell growth promotion [10]: 96.23% | cell growth promotion [11]: 95.06% | cell growth promotion [12]: 83.85% | cell growth promotion [13]: 83.07% | cell growth promotion [14]: 95.06% | cell growth promotion [15]: 89.56% | cell growth promotion [16]: 98.00% | cell growth promotion [17]: 81.93% | cell growth promotion [18]: 92.51% | cell growth promotion [19]: 85.78% | cell growth promotion [20]: 81.93% | cell growth promotion [21]: 92.72% | cell growth promotion [22]: 101.72% | cell growth promotion [23]: 93.43% | cell growth promotion [24]: 106.03% | cell growth promotion [25]: 97.45% | cell growth promotion [26]: 89.29% | cell growth promotion [27]: 80.62% | cell growth promotion [28]: 95.69% | cell growth promotion [29]: 67.96% | cell growth promotion [30]: 72.42% | inhibition at 10 µM [30]: 27.6% | cell growth promotion [31]: 77.92% | cell growth promotion [32]: 94.92% | cell growth promotion [33]: 105.18% | cell growth promotion [34]: 97.17% | cell growth promotion [35]: 93.46% | cell growth promotion [36]: 85.33% | cell growth promotion [37]: 77.18% | cell growth promotion [38]: 122.80% | cell growth promotion [39]: 76.20% | cell growth promotion [40]: 91.04% | cell growth promotion [41]: 77.32% | cell growth promotion [42]: 80.81% | cell growth promotion [43]: 101.50% | cell growth promotion [44]: 97.59% | cell growth promotion [45]: 108.25% | cell growth promotion [46]: 99.87% | cell growth promotion [47]: 115.80%

O=C(C=Cc1cccc(F)c1)c1ccc(N2CCNCC2)cc1 [Vd, 3-(3-Fluorophenyl)-1-(4-(piperazin-1-yl)phenyl)prop-2-en-1-one]
cell growth promotion [1]: 94.72% | cell growth promotion [2]: 79.41% | cell growth promotion [3]: 94.85% | cell growth promotion [4]: 81.16% | cell growth promotion [5]: 93.74% | cell growth promotion [6]: 55.72% | inhibition at 10 µM [6, 48]: 44.3% | cell growth promotion [7]: 30.44% | inhibition at 10 µM [7]: 69.6% | cell growth promotion [8]: 94.49% | cell growth promotion [9]: 85.41% | cell growth promotion [10]: 77.75% | cell growth promotion [11]: 72.39% | cell growth promotion [12]: 77.30% | cell growth promotion [13]: 75.92% | cell growth promotion [14]: 67.16% | cell growth promotion [15]: 68.16% | cell growth promotion [16]: 101.78% | cell growth promotion [17]: 79.23% | cell growth promotion [18]: 76.47% | cell growth promotion [19]: 76.85% | cell growth promotion [20]: 71.57% | cell growth promotion [21]: 96.08% | cell growth promotion [22]: 94.99% | cell growth promotion [23]: 94.15% | cell growth promotion [24]: 109.37% | cell growth promotion [25]: 71.95% | cell growth promotion [26]: 75.26% | cell growth promotion [27]: 68.63% | cell growth promotion [28]: 96.91% | cell growth promotion [29]: 67.97% | cell growth promotion [30]: 58.41% | inhibition at 10 µM [30]: 41.6% | cell growth promotion [31]: 16.55% | inhibition at 10 µM ([31]; Homo sapiens, K562, 10 µM single dose, read-out: cell growth inhibition): 83.5% | cell growth promotion [32]: 74.45% | cell growth promotion [33]: 94.27% | cell growth promotion [34]: 95.14% | cell growth promotion [35]: 61.08% | cell growth promotion [36]: 73.16% | cell growth promotion [37]: 76.58% | cell growth promotion [38]: 114.19% | cell growth promotion [39]: 76.84% | cell growth promotion [40]: 95.54% | cell growth promotion [41]: 60.38% | inhibition at 10 µM [41, 48]: 39.2% | cell growth promotion [42]: 58.18% | inhibition at 10 µM [42, 48]: 41.8% | cell growth promotion [43]: 85.44% | cell growth promotion [44]: 73.49% | cell growth promotion [45]: 80.53% | cell growth promotion [46]: 84.70% | cell growth promotion [47]: 109.03%

— article PMC7758046, “Novel piperazine–chalcone hybrids and related pyrazoline analogues targeting VEGFR-2 kinase; design, synthesis, molecular docking studies, and anticancer evaluation” (Journal of Enzyme Inhibition and Medicinal Chemistry, 2020)
